Assay results published in patent US20210353595A1, “USE OF MELATONIN IN PREPARATION OF MEDICAMENT FOR INHIBITING AND/OR KILLING BACTERIUM” (priority 2020, published 2021).
≈ marks a conversion by molar mass, not a printed value. Entries after “also recorded” stand apart in the source; their conditions may differ.

Legend:
Assay type in all cases: cell-based
[1] = tested on: citrate synthase in Klebsiella pneumoniae; test: Citrate synthase activity of bacteria after treatment; conditions: MT 1-3 mg/mL, 12 h, FIG. 28
Method: (§1) Further, 1 mL of Klebsiella pneumoniae, Pseudomonas aeruginosa, Diplococcus pneumoniae and Streptococcus pneumoniae at the logarithmic growth stage was added into 100 mL of fresh and sterile Martin broth liquid medium containing different concentrations of melatonin and citric acid (MT-1 mg/mL, MT-2 mg/mL, MT-3 mg/mL, CA-1 mg/mL, CA-2 mg/mL, CA-3 mg/mL, MT-1 mg/mL-CA-1 mg/mL, MT-2 mg/mL-CA-2 mg/mL, MT-3 mg/mL-CA-3 mg/mL) added was. Melatonin-free DMSO was used as the solvent control group, and the bacterial cells were cultured in a constant-temperature shaker at 37° C. and 220 rpm for 12 h. Thereafter, 1 mL of the bacterial solution was pipetted and centrifuged at 3000 r/min for 10 minutes. The bacterial cells were then collected and determined for citrate synthase activity according to the protocol of the instructions for the kit. Each experiment was repeated three times, and each group was set in triplicate.

[2] = target: T1, citrate synthase in Pseudomonas aeruginosa (Pseudomonas aeruginosa, UniProt P14165); test: as above; conditions: MT 1-3 mg/mL, 12 h, FIG. 28
T1 construct: The bacterial cells were then collected and determined for citrate synthase activity according to the protocol of the instructions for the kit; endogenous in cells; host or cells: Pseudomonas aeruginosa culture
T1 sequence (P14165 whole entry): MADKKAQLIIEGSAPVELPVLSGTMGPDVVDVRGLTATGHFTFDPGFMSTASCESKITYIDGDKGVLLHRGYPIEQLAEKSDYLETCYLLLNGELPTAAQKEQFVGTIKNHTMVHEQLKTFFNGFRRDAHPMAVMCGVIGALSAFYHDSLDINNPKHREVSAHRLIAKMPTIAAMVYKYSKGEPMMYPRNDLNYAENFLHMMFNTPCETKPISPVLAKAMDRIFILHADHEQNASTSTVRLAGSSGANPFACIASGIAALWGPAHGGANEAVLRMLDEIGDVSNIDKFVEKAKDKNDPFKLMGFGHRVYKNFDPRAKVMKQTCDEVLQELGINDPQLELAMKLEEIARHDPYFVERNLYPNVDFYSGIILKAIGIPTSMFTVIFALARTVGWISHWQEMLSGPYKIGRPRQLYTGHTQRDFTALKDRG
Method: as §1

[3] = tested on: Enterobacter sakazakii; test: MIC/MBC bacteriostatic and bactericidal test; conditions: Cronobacter sakazakii
Method: (§2) 1 mL of a fresh suspension of bacteria (1×10^9 CFU) at the logarithmic growth stage was added into 100 mL containing different concentrations (50 mg/mL, 25 mg/mL, 12.5 mg/mL, 6.25 mg/mL, 3.125 mg/mL, 1.5625 mg/mL, 0.78125 mg/mL, 0.390625 mg/mL) of melatonin. A melatonin (MT)-free solution diluted with DMSO was used as a control group. The samples were shaken at 37° C. and a rotation speed of 120 r/min with protection from light for 12 hours, and then subjected to detection of the minimal inhibitory concentration (MIC) of MT on bacteria. Then, 0.1 mL of the aforementioned transparent bacterial solution was pipetted onto a sterilized agar plate of a specific culture medium and coated evenly, incubated in an incubator at 37° C. for 24 hours, and then subjected to detection of the minimum bactericidal concentration (MBC) of MT on pathogens, wherein the minimum concentration of MT at which no bacterium grew was the MBC of MT on pathogens. Each experiment was carried out for 3 times, and each group was set in triplicate.

[4] = tested on: Mannheimia haemolytica; test: MIC/MBC bacteriostatic and bactericidal test
Method: as §2

[5] = tested on: Acinetobacter baumannii; test: MIC/MBC bacteriostatic and bactericidal test
Method: as §2

[6] = tested on: Escherichia coli C83902 (ATCC72864); test: MIC/MBC bacteriostatic and bactericidal test
Method: as §2

[7] = tested on: Pneumococcus; test: MIC/MBC bacteriostatic and bactericidal test
Method: as §2

[8] = tested on: Lactobacillus johnsonii; test: MIC/MBC bacteriostatic and bactericidal test
Method: as §2

[9] = tested on: Bovine meningitic Escherichia coli; test: MIC/MBC bacteriostatic and bactericidal test
Method: as §2

[10] = tested on: Streptococcus pneumoniae; test: MIC/MBC bacteriostatic and bactericidal test
Method: as §2

[11] = tested on: Listeria monocytogenes (ATCC53005); test: MIC/MBC bacteriostatic and bactericidal test
Method: as §2

[12] = tested on: Bacillus cereus; test: MIC/MBC bacteriostatic and bactericidal test
Method: as §2

[13] = tested on: Pasteurella multocida; test: MIC/MBC bacteriostatic and bactericidal test
Method: as §2

[14] = tested on: Avianpathogenic Escherichia coli; test: MIC/MBC bacteriostatic and bactericidal test; conditions: 12 h
Method: as §2

[15] = tested on: Salmonella enteritidis (ATCC85090); test: MIC/MBC bacteriostatic and bactericidal test; conditions: Salmonella enterica
Method: as §2

[16] = tested on: Klebsiella pneumoniae; test: MIC/MBC bacteriostatic and bactericidal test
Method: as §2

[17] = tested on: Pasteurella multocida; test: Killing bacteria by melatonin above MBC (OD600, living bacteria count); conditions: for time to kill all bacteria: FIGS. 2 and 3
Method: Into 100 mL of fresh and sterile Martin broth medium, 1 mL of Pasteurella multocida (1×10^9 CFU) at the logarithmic growth stage was added. The bacteria were cultured in a constant-temperature shaker under conditions of 37° C. and 220 rpm for 8 hours. […] After the addition of MT, the bacterial culture was continuously measured for OD600 every 20 minutes to depict a growth curve under the action of melatonin at a concentration higher than the MBC. At the same time, 100 μL of the bacterial culture was evenly coated on a Martin agar plate, and incubated at 37° C. for 24 h so as to calculate the number of living bacteria for bacterial counting.

[18] = tested on: Pasteurella multocida; test: LIVE/DEAD BacLight integrity of bacterial cell membrane; conditions: melatonin greater than the MIC concentration; 8, 12, 16 hours; time- and dose-dependent; FIG. 9
Method: The integrity of bacterial cell membrane was evaluated with a LIVE/DEAD BacLight bacterial detection kit. 1 mL of bacterial culture was centrifuged at 3000 rpm for 10 minutes, the supernatant was removed, and the cells were washed with 10 mL of 0.85% NaCl for 3 times. The precipitated cells were resuspended and mixed with 1 mL of 0.85% NaCl. Then a mixture of SYTO9 fluorescent nucleic acid dye and propidium iodide mixed at the equal volume (3 μL each) was added into the resuspended solution. The mixture was thoroughly mixed and incubated in the dark at room temperature for 15 minutes. 5 μL of suspension of stained bacteria was added between a slide glass and a 18 mm square cover glass. (The combination of two nucleic acid dyes in this kit can distinguish living bacteria with intact membranes from dead bacteria with damaged membranes.) The living bacteria were dyed green with SYTO9, while the dead bacteria presented as red because of the interaction between propidium iodide and the double-stranded DNA of the bacteria. The fluorescence micrographs of stained bacteria were taken by OLYMPUS IX51 inverted microscope. Each experiment was carried out in triplicate for three times.

With `COc1ccc2[nH]cc(CCNC(C)=O)c2c1` [melatonin, N-acetyl-5-methoxytryptamine] the “enzyme activity of citrate synthase” value [1] was “significantly reduces”, the “enzyme activity of citrate synthase” value [2] was “significantly reduces” and the MIC ([3]; 37° C., 12 hours) was 6.25 mg/mL (≈ 26.9 mM). The MBC ([3]; agar plate 37° C., 24 hours) was 25 mg/mL (≈ 108 mM), the MIC ([4]; 37° C., 12 hours) was 12.5 mg/mL (≈ 53.8 mM) and the MBC ([4]; agar plate 37° C., 24 hours) was 25 mg/mL (≈ 108 mM). It also gave an MIC ([5]; 37° C., 12 hours) of 12.5 mg/mL (≈ 53.8 mM), an MBC ([5]; agar plate 37° C., 24 hours) of 12.5 mg/mL (≈ 53.8 mM) and an MIC ([6]; 37° C., 12 hours) of 12.5 mg/mL (≈ 53.8 mM). The MBC ([6]; agar plate 37° C., 24 hours) was 25 mg/mL (≈ 108 mM), the MIC ([7]; 37° C., 12 hours) was 12.5 mg/mL (≈ 53.8 mM) and the MBC ([7]; agar plate 37° C., 24 hours) was 25 mg/mL (≈ 108 mM). It also gave an MIC ([8]; 37° C., 12 hours) of 25 mg/mL (≈ 108 mM), an MBC ([8]; agar plate 37° C., 24 hours) of 50 mg/mL (≈ 215 mM) and an MIC ([9]; 37° C., 12 hours) of 12.5 mg/mL (≈ 53.8 mM). It also gave an MBC ([9]; agar plate 37° C., 24 hours) of 12.5 mg/mL (≈ 53.8 mM), an MIC ([10]; 37° C., 12 hours) of 12.5 mg/mL (≈ 53.8 mM) and an MBC ([10]; agar plate 37° C., 24 hours) of 25 mg/mL (≈ 108 mM). For the same molecule, the MIC ([11]; 37° C., 12 hours) was 12.5 mg/mL (≈ 53.8 mM), the MBC ([11]; agar plate 37° C., 24 hours) was 50 mg/mL (≈ 215 mM) and the MIC ([12]; 37° C., 12 hours) was 6.25 mg/mL (≈ 26.9 mM). The MBC ([12]; agar plate 37° C., 24 hours) was 12.5 mg/mL (≈ 53.8 mM), the MIC ([13]; 37° C., 12 hours) was 1.56 mg/mL (≈ 6.73 mM) and the MBC ([13]; agar plate 37° C., 24 hours, no bacterium grew) was 3.12 mg/mL (≈ 13.5 mM). For the same molecule, the MIC [14] was 6.25 mg/mL (≈ 26.9 mM), the MIC ([15]; 37° C., 12 hours) was 12.5 mg/mL (≈ 53.8 mM) and the MBC ([15]; agar plate 37° C., 24 hours) was 12.5 mg/mL (≈ 53.8 mM). The MIC ([16]; 37° C., 12 hours) was 3.12 mg/mL (≈ 13.5 mM), the MBC ([16]; agar plate 37° C., 24 hours) was 6.25 mg/mL (≈ 26.9 mM) and the “time to kill all bacteria” value ([17]; 4 mg/mL of melatonin, added after 8 hours culture) was 10 h. For the same molecule, the bactericidal effect ([17]; concentration higher than the MBC (4, 8, 10 mg/mL)) was “significant bactericidal effect in a dose-dependent manner”, the “time to kill all bacteria” value ([17]; higher concentration of melatonin (8, 10 mg/mL)) was 4 h and the “damage to bacterial cell membrane (SYTO9 / propidium iodide fluorescence)” value [18] was “the red fluorescence increased and the green fluorescence decreased; also recorded: damages the cell membrane”.
